According to US12077522B2, “Heterocyclic compound and application thereof” (Takeda Pharmaceutical Company Limited, priority 2018, dated 2024):

Target: T1, human orexin type 2 receptor (Homo sapiens, UniProt O43614)
T1 construct: expressed in transfected cells
T1 sequence (O43614 1-444): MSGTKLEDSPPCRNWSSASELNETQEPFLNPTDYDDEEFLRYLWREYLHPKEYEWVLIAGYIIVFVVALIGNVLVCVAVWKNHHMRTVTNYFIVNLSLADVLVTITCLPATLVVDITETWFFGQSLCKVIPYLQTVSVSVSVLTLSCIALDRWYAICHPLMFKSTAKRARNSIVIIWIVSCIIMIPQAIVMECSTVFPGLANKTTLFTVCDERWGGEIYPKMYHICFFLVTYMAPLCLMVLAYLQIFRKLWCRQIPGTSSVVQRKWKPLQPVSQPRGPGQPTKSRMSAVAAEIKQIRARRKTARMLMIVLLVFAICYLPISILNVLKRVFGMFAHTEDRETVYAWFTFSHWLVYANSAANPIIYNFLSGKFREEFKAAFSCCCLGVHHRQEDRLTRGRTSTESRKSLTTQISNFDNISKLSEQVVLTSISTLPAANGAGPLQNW
Experiment: Measurement of orexin type 2 receptor agonist activity (calcium fluorescence, Fluo-4 AM, FDSS)
Format: cell-based
Conditions: compound at 3 μM; CHO cells forcibly expressing human OX2 receptor; DMSO = 0%, orexin A (human) 10 nM = 100%
Description: To obtain a cell clone stably expressing human orexin type 2 receptor, human orexin type 2 receptor cDNA was inserted into pcDNA3.1(+) plasmid vector (Invitrogen), and a plasmid DNA for expression of human orexin type 2 receptor (pcDNA3.1(+)/hOX2R) was cloned. The plasmid DNA was introduced into CHO-dhfr cell by an electroporation method, and human orexin type 2 receptor expressing clone cells were obtained by limiting dilution method by using G418 drug resistance as a selection marker.
CHO cells forcibly expressing human OX2 receptor were seeded in each well of 384 well black transparent bottom plate (BD Falcon) at 7,500 cells/well, and cultured for one day in a 5% CO2 incubator at 37° C. After removal of the medium in the cell plate, assay buffer A containing a calcium indicator (HBSS (Thermo Fisher Scientific), 20 mM HEPES (Thermo Fisher Scientific), 0.1% BSA (Wako Pure Chemical Industries, Ltd. or Sigma-Aldrich), 2.5 μg/mL Fluo-4 AM (DOJINDO Chemical), 0.08% Pluronic F127 (DOJINDO Chemical), 1.25 mM probenecid (DOJINDO Chemical)) was added at 30 μL/well. The plate was stood for 30 min in a 5% CO2 incubator at 37° C., and further stood at room temperature for 30 min. A test compound prepared by diluting with assay buffer B (HBSS, 20 mM HEPES, 0.1% BSA) was added at […], and the fluorescence value was measured by FDSSpCELL (Hamamatsu Photonics K.K.) every one sec for 1 min, and thereafter every two sec for 1 min 40 sec. The activity (%) of the test compound was calculated assuming that variation in the fluorescence value when DMSO was added instead of the test compound was 0%, and variation in the fluorescence value when orexin A (human) (PEPTIDE INSTITUTE, INC.) was added at the final concentration of 10 nM was 100%. The activity of each compound at the concentration of 3 μM was shown below.

| OX2R agonist activity (3 μ M, %) | SMILES |
| --- | --- |
| 96% | CC(C)OC(=O)N1CCCC(NC(=O)[C@@H]2CCCO2)C1COC1CCN(c2ncccn2)CC1 (stereo in doubt) [Example 15, propan-2-yl cis-3-{[(2S)-oxolane-2-carbonyl]amino}-2-({[1-(pyrimidin-2-yl)piperidin-4-yl]oxy}methyl)piperidine-1-carboxylate] |
| 99% | CCNC(=O)N1CCCC(NC(=O)C(=O)N(C)C)C1CO[C@H]1CC[C@@H](c2ccccc2F)CC1 (stereo partly drawn) [Example 22, N^~2^~-[cis-1-(ethylcarbamoyl)-2-({[cis-4-(2-fluorophenyl)cyclohexyl]oxy}methyl)piperidin-3-yl]-N^~1^~,N^~1^~- dimethylethanediamide] |
| 83% | O=C(NC1CCCN(C(=O)N2CCC2)C1COC1CCN(c2ncc(F)cn2)CC1)[C@@H]1CCCO1 (stereo in doubt) [Example 8, (2S)-N-[cis-1-(azetidine-1-carbonyl)-2-({[1-(5-fluoropyrimidin-2-yl)piperidin-4-yl]oxy}methyl)piperidin-3-yl]oxolane-2-carboxamide] |
| 84% | CN(C)C(=O)C(=O)NC1CCCN(C(=O)C2CCC2)C1COC1CCN(c2ncc(F)cn2)CC1 (stereo not drawn) [Example 4, N^~2^~- [cis-1-(cyclobutanecarbonyl)-2-({[1-(5-fluoropyrimidin-2-yl)piperidin-4-yl]oxy}methyl)piperidin-3-yl]-N^~1^~,N^~1^~-dimethylethanediamide] |
| 99% | O=C(NC1CCCN(C(=O)C2CCC2)C1COC1CCN(c2ncc(F)cn2)CC1)[C@@H]1CCCO1 (stereo in doubt) [Example 12, (2S)-N-[cis-1-(cyclobutanecarbonyl)-2-({[1-(5-fluoropyrimidin-2-yl)piperidin-4-yl]oxy}methyl)piperidin-3-yl]oxolane-2-carboxamide] |
| 102% | CCNC(=O)N1CCCC(NC(=O)C(=O)N(C)C)C1CO[C@H]1CC[C@@H](c2cccc(F)c2)CC1 (stereo partly drawn) [Example 21, N^~2^~-[cis-1-(ethylcarbamoyl)-2-({[cis-4-(3-fluorophenyl)cyclohexyl]oxy}methyl)piperidin-3-yl]-N^~1^~,N^~1^~- dimethylethanediamide] |
| 95% | CC(C)OC(=O)N1CCCC(NC(=O)[C@@H]2CCCO2)C1COC1CCN(c2ncc(F)cn2)CC1 (stereo in doubt) [Example 16, propan-2-yl cis-2-({[1-(5-fluoropyrimidin-2-yl)piperidin-4-yl]oxy}methyl)-3-{[(2S)-oxolane-2-carbonyl]amino}piperidine-1-carboxylate] |
| 92% | O=C(NC1CCCN(C(=O)C2(O)CCC2)C1COC1CCN(c2ncc(F)cn2)CC1)[C@@H]1CCCO1 (stereo in doubt) [Example 14, (2S)-N-[cis-2-({[1-(5-fluoropyrimidin-2-yl)piperidin-4-yl]oxy}methyl)-1-(1-hydroxycyclobutane-1-carbonyl)piperidin-3-yl]oxolane-2-carboxamide] |
| 75% | CCNC(=O)N1CCCC(NC(=O)C(=O)N(C)C)C1CO[C@H]1CC[C@@H](c2ccc(F)cc2)CC1 (stereo partly drawn) [Example 19, N^~2^~-[cis-1-(ethylcarbamoyl)-2-({[cis-4-(4-fluorophenyl)cyclohexyl]oxy}methyl)piperidin-3-yl]-N^~1^~,N^~1^~- dimethylethanediamide] |
| 98% | CCNC(=O)N1CCCC(NC(=O)C(=O)N(C)C)C1CO[C@H]1CC[C@@H](c2ccccc2)CC1 (stereo partly drawn) [Example 18, N^~2^~-[cis-1-(ethylcarbamoyl)-2-({[cis-4-phenylcyclohexyl]oxy}methyl)piperidin-3-yl]-N^~1^~,N^~1^~- dimethylethanediamide] |
| 81% | O=C(NC1CCCN(C(=O)C2(O)CCC2)C1COC1CCN(c2ncccn2)CC1)[C@@H]1CCCO1 (stereo in doubt) [Example 13, (2S)-N-[cis-1-(1-hydroxycyclobutane-1-carbonyl)-2-({[1-(pyrimidin-2-yl)piperidin-4-yl]oxy}methyl)piperidin-3-yl]oxolane-2-carboxamide] |
| 67% | O=C(NC1CCCN(C(=O)N2CCC2)C1COC1CCN(c2ncccn2)CC1)[C@@H]1CCCO1 (stereo in doubt) [Example 7, (2S)-N-[cis-1-(azetidine-1-carbonyl)-2-({[1-(pyrimidin-2-yl)piperidin-4-yl]oxy}methyl)piperidin-3-yl]oxolane-2-carboxamide] |
| 94% | O=C(NC1CCCN(C(=O)C2CCC2)C1COC1CCN(c2ncccn2)CC1)[C@@H]1CCCO1 (stereo in doubt) [Example 11, (2S)-N-[cis-1-(cyclobutanecarbonyl)-2-({[1-(pyrimidin-2-yl)piperidin-4-yl]oxy}methyl)piperidin-3-yl]oxolane-2-carboxamide] |
